According to ChEMBL document CHEMBL3994662, “In vivo instability of platensimycin and platencin: Synthesis and biological evaluation of urea- and carbamate-platensimycin” (Bioorg Med Chem, 2017):
Values after ≈ are worked out from the molar mass of the structure shown.

How the values were obtained:
[1] = Apparent permeability by PAMPA; assay type: physicochemical
[2] = Observed clearance in C57Bl/6 mouse at 3 mg/kg, iv administered as single dose by LC-MS/MS analysis; assay type: ADME, organism-based; conditions: in vivo
Mus musculus [3] = test: AUC (0 to 8 hrs) in C57Bl/6 mouse at 10 mg/kg, po administered as single dose via gavage by LC-MS/MS analysis; assay type: ADME, organism-based; design: time < 8 hr, dose 10 mg/kg, route oral; conditions: in vivo
[4] = Drug metabolism in mouse hepatic microsomes assessed as glucuronidation of carboxylic acid at 1 uM up to 60 mins in absence of NADPH by LC-MS/MS analysis; assay type: ADME, Liver, Microsome; conditions: 1 h
Liver [5] = test: In vivo stability in C57Bl/6 mouse liver assessed as compound hydrolysis by measuring platensic acid level at 10 mg/kg, iv administered as single dose measured after 60 mins by LC-MS/MS analysis relative to platensimycin; assay type: ADME, organism-based; conditions: 1 h
Micrococcus luteus = test: Antibacterial activity against Micrococcus luteus ATCC 9431 after 18 hrs by broth dilution method; assay type: functional; conditions: ATCC 9431, 18 h
[6] = Ratio of drug level in C57Bl/6 mouse kidney to plasma at 10 mg/kg, iv administered as single dose measured after 60 mins by LC-MS/MS analysis; assay type: ADME, organism-based
Plasma [7] = test: Drug uptake in C57Bl/6 mouse plasma at 10 mg/kg, iv administered as single dose measured after 60 mins by LC-MS/MS analysis; assay type: ADME, organism-based; conditions: in vivo, 1 h
[8] = Elimination half life in C57Bl/6 mouse at 3 mg/kg, iv administered as single dose by LC-MS/MS analysis; assay type: ADME, organism-based; conditions: in vivo, read-out: beta t1/2 (converted)
[9] = Intrinsic clearance in mouse hepatic microsomes at 1 uM up to 60 mins by LC-MS/MS analysis; assay type: ADME, Microsome; conditions: liver microsomes, read-out: CLH
Liver [10] = test: In vivo stability in C57Bl/6 mouse liver assessed as compound hydrolysis at 10 mg/kg, iv administered as single dose measured after 60 mins by LC-MS/MS analysis; assay type: ADME, organism-based; conditions: 1 h
[11] = Volume of distribution in C57Bl/6 mouse at 3 mg/kg, iv administered as single dose by LC-MS/MS analysis; assay type: ADME, organism-based; conditions: in vivo
[12] = Drug metabolism in mouse hepatic microsomes assessed as amide hydrolysis-mediated platensic acid formation at 1 uM up to 60 mins in presence of NADPH by LC-MS/MS analysis; assay type: ADME, Liver, Microsome; conditions: 1 h
Brain [13] = test: Drug uptake in C57Bl/6 mouse brain at 10 mg/kg, iv administered as single dose measured after 60 mins by LC-MS/MS analysis; assay type: ADME, organism-based; conditions: in vivo, 1 h
Lung [14] = test: In vivo stability in C57Bl/6 mouse lung assessed as compound hydrolysis at 10 mg/kg, iv administered as single dose measured after 60 mins by LC-MS/MS analysis; assay type: ADME, organism-based; conditions: 1 h
[15] = In vivo stability in C57Bl/6 mouse urine assessed as compound hydrolysis at 10 mg/kg, iv administered as single dose measured after 60 mins by LC-MS/MS analysis; assay type: ADME, organism-based; conditions: 1 h
[16] = Drug uptake in C57Bl/6 mouse adipose tissue at 10 mg/kg, iv administered as single dose measured after 60 mins by LC-MS/MS analysis; assay type: ADME, organism-based; conditions: in vivo, 1 h
[17] = Cmax in C57Bl/6 mouse at 10 mg/kg, po administered as single dose via gavage by LC-MS/MS analysis; assay type: ADME, organism-based; design: dose 10 mg/kg, route oral; conditions: in vivo
Plasma [18] = test: In vivo stability in C57Bl/6 mouse plasma assessed as compound hydrolysis by measuring platensic acid level at 10 mg/kg, iv administered as single dose measured after 60 mins by LC-MS/MS analysis relative to platensimycin; assay type: ADME, organism-based; conditions: 1 h
[19] = Ratio of drug level in C57Bl/6 mouse lung to plasma at 10 mg/kg, iv administered as single dose measured after 60 mins by LC-MS/MS analysis; assay type: ADME, organism-based
[20] = Drug level in C57Bl/6 mouse urine at 10 mg/kg, iv administered as single dose measured after 60 mins by LC-MS/MS analysis; assay type: ADME, organism-based; conditions: mouse, in vivo, 1 h
Mus musculus [21] = test: AUC (0 to 8 hrs) in C57Bl/6 mouse at 3 mg/kg, iv administered as single dose by LC-MS/MS analysis; assay type: ADME, organism-based; design: dose 3 mg/kg, time < 8 hr, route intravenous; conditions: in vivo
Plasma [22] = test: In vivo stability in C57Bl/6 mouse plasma assessed as compound hydrolysis at 10 mg/kg, iv administered as single dose measured after 60 mins by LC-MS/MS analysis; assay type: ADME, organism-based; conditions: 1 h
[23] = Oral bioavailability in C57Bl/6 mouse at 10 mg/kg administered as single dose via gavage by LC-MS/MS analysis; assay type: ADME, organism-based; conditions: in vivo
[24] = In vivo stability in C57Bl/6 mouse urine assessed as compound hydrolysis by measuring platensic acid level at 10 mg/kg, iv administered as single dose measured after 60 mins by LC-MS/MS analysis relative to platensimycin; assay type: ADME, organism-based; conditions: 1 h
Kidney [25] = test: Drug uptake in C57Bl/6 mouse kidney at 10 mg/kg, iv administered as single dose measured after 60 mins by LC-MS/MS analysis; assay type: ADME, organism-based; conditions: in vivo, 1 h
[26] = In vivo stability in C57Bl/6 mouse adipose tissue assessed as compound hydrolysis at 10 mg/kg, iv administered as single dose measured after 60 mins by LC-MS/MS analysis; assay type: ADME, organism-based; conditions: 1 h
Lung [27] = test: Drug uptake in C57Bl/6 mouse lung at 10 mg/kg, iv administered as single dose measured after 60 mins by LC-MS/MS analysis; assay type: ADME, organism-based; conditions: in vivo, 1 h
[28] = Drug metabolism in mouse hepatic microsomes assessed as hydroxylation at 1 uM up to 60 mins in absence of NADPH by LC-MS/MS analysis; assay type: ADME, Liver, Microsome; conditions: 1 h
Kidney [29] = test: In vivo stability in C57Bl/6 mouse kidney assessed as compound hydrolysis by measuring platensic acid level at 10 mg/kg, iv administered as single dose measured after 60 mins by LC-MS/MS analysis relative to platensimycin; assay type: ADME, organism-based; conditions: 1 h
[30] = Drug uptake in C57Bl/6 mouse muscle at 10 mg/kg, iv administered as single dose measured after 60 mins by LC-MS/MS analysis; assay type: ADME, organism-based, Muscle tissue; conditions: in vivo, 1 h
Brain [31] = test: In vivo stability in C57Bl/6 mouse brain assessed as compound hydrolysis at 10 mg/kg, iv administered as single dose measured after 60 mins by LC-MS/MS analysis; assay type: ADME, organism-based; conditions: 1 h
[32] = Plasma concentration in C57Bl/6 mouse at 3 mg/kg, iv administered as single dose measured after 2 hrs by LC-MS/MS analysis; assay type: ADME, organism-based
[33] = Drug metabolism in mouse hepatic microsomes assessed as amide hydrolysis-mediated platensic acid formation at 1 uM up to 60 mins in absence of NADPH by LC-MS/MS analysis; assay type: ADME, Liver, Microsome; conditions: 1 h
Kidney [34] = test: In vivo stability in C57Bl/6 mouse kidney assessed as compound hydrolysis at 10 mg/kg, iv administered as single dose measured after 60 mins by LC-MS/MS analysis; assay type: ADME, organism-based; conditions: 1 h
Liver [35] = test: Drug uptake in C57Bl/6 mouse liver at 10 mg/kg, iv administered as single dose measured after 60 mins by LC-MS/MS analysis; assay type: ADME, organism-based; conditions: in vivo, 1 h
[36] = In vivo stability in C57Bl/6 mouse muscle assessed as compound hydrolysis at 10 mg/kg, iv administered as single dose measured after 60 mins by LC-MS/MS analysis; assay type: ADME, organism-based, Muscle tissue; conditions: 1 h
[37] = Ratio of drug level in C57Bl/6 mouse liver to plasma at 10 mg/kg, iv administered as single dose measured after 60 mins by LC-MS/MS analysis; assay type: ADME, organism-based
[38] = Ratio of drug level in C57Bl/6 mouse adipose tissue to plasma at 10 mg/kg, iv administered as single dose measured after 60 mins by LC-MS/MS analysis; assay type: ADME, organism-based
[39] = Ratio of drug level in C57Bl/6 mouse muscle to plasma at 10 mg/kg, iv administered as single dose measured after 60 mins by LC-MS/MS analysis; assay type: ADME, organism-based, Muscle tissue/plasma
Staphylococcus aureus = test: Antibacterial activity against Staphylococcus aureus ATCC 25923 after 18 hrs by broth dilution method; assay type: functional; conditions: ATCC 25923, 18 h
[40] = Elimination half life in C57Bl/6 mouse at 10 mg/kg, po administered as single dose via gavage by LC-MS/MS analysis; assay type: ADME, organism-based; conditions: in vivo, read-out: beta t1/2 (converted)
[41] = Cmax in C57Bl/6 mouse at 3 mg/kg, iv administered as single dose by LC-MS/MS analysis; assay type: ADME, organism-based; design: dose 3 mg/kg, route intravenous; conditions: in vivo
[42] = Ratio of drug level in C57Bl/6 mouse urine to plasma at 10 mg/kg, iv administered as single dose measured after 60 mins by LC-MS/MS analysis; assay type: ADME, organism-based; conditions: in vivo, 1 h

Compound: C[C@]12C[C@@]34C=CC(=O)[C@@](C)(CCC(=O)Nc5c(O)ccc(C(=O)O)c5O)[C@@H]3[C@H](C[C@@H]1C4)O2
- Papp [1]: 1.3 ×10⁻⁷ cm/s
- clearance [2]: 16 mL/min/kg
- AUC (Mus musculus [3]): 1.5 µM·h
- Drug metabolism [4]: Metabolite_Detected
- fold change (FC) (Liver [5]): 0.04
- MIC (Micrococcus luteus): 0.5 µg/mL (≈ 1.13 µM)
- Kp at 1 h [6]: 0.5
- Drug uptake (Plasma [7]): Active
- half-life [8]: 3.5 h
- microsomal CLint at 1 µM [9]: 13.6 µL/min/mg
- Stability (Liver [10]): Unstable
- Vd [11]: 0.9 L/kg
- Drug metabolism [12]: Metabolite_Detected
- Drug uptake (Brain [13]): Not Active
- Stability (Lung [14]): Stable
- Stability [15]: Unstable
- Drug uptake [16]: Active
- Cmax [17]: 2100 nM
- fold change (FC) (Plasma [18]): 0.1
- Kp at 1 h [19]: 0.5
- Drug uptake [20]: Active
- AUC (Mus musculus [21]): 10 µM·h
- Stability (Plasma [22]): Unstable
- bioavailability [23]: 4.4%
- fold change (FC) [24]: 0.0005
- Drug uptake (Kidney [25]): Active
- Stability [26]: Stable
- Drug uptake (Lung [27]): Active
- Drug metabolism [28]: Metabolite_Detected
- fold change (FC) (Kidney [29]): 0.2
- Drug uptake [30]: Active
- Stability (Brain [31]): Stable
- concentration at 2 h [32]: 10 nM
- Drug metabolism [33]: Metabolite_Detected
- Stability (Kidney [34]): Unstable
- Drug uptake (Liver [35]): Active
- Stability [36]: Stable
- Kp at 1 h [37]: 6.2
- Kp at 1 h [38]: 0.1
- Kp at 1 h [39]: 0.1
- MIC (Staphylococcus aureus): 0.5 µg/mL (≈ 1.13 µM)
- half-life [40]: 3.2 h
- Cmax [41]: 20000 nM
- Ratio [42]: 3790
